The test relates to cyclosporine A-induced nephrotoxicity. Put plainly: cyclosporine A-induced nephrotoxicity (rise in serum BUN) in SHR rats dosed for 14 days. The following applies: for Serum BUN ± S.E.M.: 14 days; for inhibition of the increase in serum BUN: 3 mg/kg/day in saline. The test is classed as in vivo, female spontaneously hypertensive (SHR) rats. The protocol:
All experiments were carried out using female spontaneously hypertensive (SHR) rats, weight range 160-200 gm, obtained from Taconic Farms. […] Four thromboxane antagonists have been studied so far. […] Thromboxane antagonists have been administered as the sodium salt dissolved in saline, the sodium salt dissolved in 0.1% NaHCO₃ or the free acid suspended in 1% Methocel.

The mark [1] stands for this setting: 3 mg/kg/day in saline with cyclosporine A 25 mg/kg/day, Combined experiments.
Where [2] appears, read: 3 mg/kg/day in saline with cyclosporine A 25 mg/kg/day, Experiment 1.
[3] abbreviates: second experiment combined together.

On to `O=C(O)CC1CCCc2c1n(Cc1ccc(Cl)cc1)c1ccc(F)cc21` (racemic) [Compound 2, 9-(p-Chlorobenzyl)-6-fluoro-1,2,3,4-tetrahydrocarbazol-1-yl acetic acid], for which the “Serum BUN ± S.E.M.” value under setting [1] was found to be 30.3 ± 2.0 mg/100 ml and the “Serum BUN ± S.E.M.” value under setting [2] turned out to be 24.6 ± 1.7 mg/100 ml. Also, the “inhibition of the increase in serum BUN” value by setting is: (one experiment (Table 2)) “significant inhibition”; under setting [3], “no significant inhibition”.
Take `Cc1c(CC(C)(C)C(=O)O)n(Cc2ccc(Cl)cc2)c2ccc(F)cc12` [Compound 1, 3-(1-(4-Chlorobenzyl)-3-methyl-5-fluoroindol-2 yl)-2,2-dimethyl propanoic acid]: the “inhibition of the increase in serum BUN induced by cyclosporine A” value runs as follows: (3 mg/kg/day in 0.1% NaHCO₃) “No significant inhibition”; (10 mg/kg/day in 0.1% NaHCO₃, mean of two separate experiments, p < 0.05) “significant inhibition”. For the same compound, the “Serum BUN ± S.E.M.” value runs as follows: (3 mg/kg/day in 0.1% NaHCO₃ with cyclosporine A 25 mg/kg/day) 28.3 ± 2.2 mg/100ml; under setting [1], 28.0 ± 1.6 mg/100 ml; under setting [2], 24.5 ± 1.1 mg/100 ml; (10 mg/kg/day in 0.1% NaHCO₃ with cyclosporine A 25 mg/kg/day, 2 separate experiments) 23.4 ± 0.9 mg/100ml. Also, the “inhibition of the increase in serum BUN” value runs as follows: (one experiment (Table 2)) “significant inhibition”; under setting [3], “no significant inhibition”.
As for `CS(=O)(=O)c1ccc(Cn2c3c(c4cc(F)cc(F)c42)CCCC3CC(=O)O)cc1` (single isomer, unassigned; (-)) [Compound 4, (-)-9-(p-Methylsulfonylbenzyl)-6,8-difluoro-1,2,3,4-tetrahydrocarbazol-1-yl acetic acid], the “Serum BUN ± S.E.M.” value by setting is: (3 mg/kg/day, suspension of free acid in 1% Methocel, with cyclosporine A 25 mg/kg/day, Table 5) 23.5 ± 1.0 mg/100 ml; (10 mg/kg/day, suspension of free acid in 1% Methocel, with cyclosporine A 25 mg/kg/day, Table 5) 21.9 ± 0.8 mg/100 ml. Also, the “effect on cyclosporine A-induced rises in serum BUN” value (both 3 and 10 mg/kg/day, suspension of the free acid) is listed as “effective”.
`O=C(O)CC1CCCc2c1n(Cc1ccc(Cl)cc1)c1c(F)cc(F)cc21` (single isomer, unassigned; (-)) [Compound 3, (-)-9-(p-Chlorobenzyl)-6,8-difluoro-1,2,3,4-tetrahydrocarbazol-1-yl acetic acid]: the “Serum BUN ± S.E.M.” value runs as follows: (3 mg/kg/day, suspension of free acid in 1% Methocel, with cyclosporine A 25 mg/kg/day, Table 4 (two separate experiments)) 23.2 ± 0.9 mg/100 ml; (10 mg/kg/day, suspension of free acid in 1% Methocel, with cyclosporine A 25 mg/kg/day, Table 4 (two separate experiments)) 24.0 ± 1.1 mg/100 ml. Besides, the “inhibition of the rise in serum BUN” value (both doses (3 and 10 mg/kg/day), suspension of the free acid, two separate experiments) is “significant inhibition”.

The values above are taken from patent EP0300675A2, “Method for the improvement of cyclosporine therapy” (MERCK FROSST CANADA INC., priority 1987, dated 1989).
